{"source": "patent US9949948B2", "about": "“Artemisinin and its derivatives for use in the treatment of trauma haemorrhage and associated conditions” (Queen Mary University of London, priority 2011, dated 2018)", "key": {"HS-rats": {"system": "HS-rats", "assay": "Organ injury and dysfunction induced by trauma haemorrhage (haemorrhagic shock) in the rat", "assay_type": "in vivo, Wistar rats", "protocol": "Thirty-five male Wistar rats (271±5 g) were anaesthetised with sodium thiopentone (120 mg/kg i.p., LINK Pharmaceuticals Ltd., West Sussex, UK) and anaesthesia was maintained by supplementary injections (˜10 mg/kg i.v.) of sodium thiopentone as and when required. The animals were placed onto a thermostatically controlled heating mat (Harvard Apparatus Ltd., Kent, UK) and body temperature was maintained at 37±1° C. by means of a rectal probe attached to a homeothermic blanket. A tracheotomy was performed by inserting into the lumen of the trachea a small length of polyethylene tubing [Internal Diameter (ID) 1.67 mm, Portex, Kent, UK] to maintain airway patency and facilitate spontaneous respiration.\nThe right carotid artery was cannulated (ID 0.58 mm, Portex) to facilitate the withdrawal of blood using a heparinised syringe. The right jugular vein was cannulated (ID 0.40 mm, Portex) for the administration of Ringer's Lactate (RL), shed blood, test compounds and/or vehicle. The bladder was also cannulated (ID 0.76 mm, Portex) for the collection of urine. Upon completion of the surgical procedure, cardiovascular parameters were allowed to stabilise for a period of 15 min.\nAfter the stabilisation period, blood was withdrawn via the cannula inserted in the right carotid artery in order to achieve a fall in MAP to 35±5 mmHg within 10 min. From this point onwards, MAP was maintained at 35±5 mmHg for a period of 90 min either by further withdrawal of blood during the compensation phase (MAP rises following blood withdrawal due to sympathetic response) or administration of Ringer's Lactate i.v. during the decompensation phase (animals are unable to increase and maintain high MAP). The average volume of blood withdrawn during haemorrhage was 9.8±0.2 ml (n=31, across all haemorrhaged groups). At 90 min after initiation of haemorrhage, resuscitation was performed with 20 ml/kg Ringer's Lactate i.v. over a period of 10 min and then half the shed blood mixed with 100 u/ml heparinised saline i.v. over a period of 50 min. At the end of 1 h resuscitation, an i.v. infusion of Ringer's Lactate (1.5 ml/kg/h) was started as fluid replacement and maintained for a further 3 h.\nFour hours after the onset of resuscitation, 1.2 ml blood was collected from the right carotid artery and decanted into serum gel tubes (Sarstedt, Numbrecht, Germany), after which the heart was removed to terminate the experiment. The samples were centrifuged (9900 rpm for 3 min) to separate serum from which urea, creatinine, aspartate aminotransferase (AST), alanine aminotransferase (ALT) and creatinine kinase (CK) were measured within 24 hours (Idexx Laboratories Ltd., West Yorkshire, UK). Urine collected during the last 3 h of the experiment was analysed for creatinine levels in order to estimate creatinine clearance as an indicator of glomerular dysfunction and was calculated as follows: […]\nSham-operated rats underwent identical surgical procedures but without haemorrhage or resuscitation."}, "[1]": {"system": "rats subjected to regional myocardial ischaemia and reperfusion", "assay": "Regional myocardial ischaemia and reperfusion, artesunate dissolved in 10% DMSO", "assay_type": "in vivo, Wistar rats", "conditions": "for Infarct size reduction: vs control; for infarct size (percentage of the AAR): control 59.8±3.2%, P<0.05", "protocol": "Rats were anesthetised with thiopentone sodium (Intraval® 120 mg/kg i.p.). Anesthesia was maintained by supplementary injections of thiopentone sodium as required. The trachea was cannulated and the animals were ventilated with a Harvard ventilator (inspiratory oxygen concentration: 30%; 70 strokes/min, tidal volume: 8-10 ml/kg). Body temperature was maintained at 37+1° C. with the aid of a rectal probe thermometer attached to a homeothermic blanket unit (Harvard Apparatus Ltd., Edenbridge, Kent. U.K.). […] The right jugular vein was then cannulated for the administration of drugs and saline. A para-sternal thoracotomy was then performed, using an Electrosurgery device to cauterize the intercostals arteries before cutting through three ribs. The chest was retracted and pericardium dissected from the heart. The left anterior descending (LAD) coronary artery was isolated and a snare occluder was placed around the LAD. The retractor was then removed and the animal was allowed to stabilise for 15 min.\nThe occluder was tightened at time 0. After 25 min of LAD-occlusion, the occluder was released to allow reperfusion of the previously ischemic myocardium (2 h). Hemodynamic parameters were continuously monitored. Baseline readings were taken prior to treatment, and, myocardial IRI. The pressure rate index (PRI), a relative indicator of myocardial oxygen consumption was calculated as a product of the MAP (mmHg) and HR (beats/minute-bpm) and expressed in mm Hg bpm×10-3.\nAt the end of the 2 h reperfusion period, the LAD was re-occluded and 1 ml of Evans Blue dye (2% w/v) was injected into the animal, via the jugular vein. The Evans Blue dye stains the tissue it can circulate through, therefore the non-perfused vascular (occluded) tissue remains un-coloured. Each animal was killed with an over-dose of anaesthetic, the heart excised, and excess dye washed off. […] The ischaemic and non-ischaemic tissue was weighed, and the AAR expressed as a percentage of the left ventricle. The tissue from the AAR was cut into small pieces and incubated with p-nitroblue tetrazolium (NBT, 0.5 mg/ml) for 30 min at 37° C. NBT is a reducing agent that reacts with dehydrogenases present in viable (non-infarcted) tissue to produce a dark blue formazan. Infarcted tissue (non-viable) will not have dehydrogenase activity and will therefore fail to stain. The stained tissue was separated from the infarcted tissue, weighed, and the infarct size expressed as a percentage of the AAR."}, "[2]": {"conditions": "1 mg/kg i.v. on resuscitation, P>0.05"}, "[3]": {"conditions": "both 3 and 10 mg/kg i.v. on resuscitation, P<0.05"}, "[4]": {"conditions": "bolus 10, 3, 1 mg/kg in 10% DMSO upon reperfusion, P>0.05 vs Control"}}, "data": [{"smiles": "C[C@H]1[C@H](OC(=O)CCC(=O)O)O[C@@H]2O[C@@]3(C)CC[C@H]4[C@H](C)CC[C@@H]1[C@@]24OO3", "note": "[artesunate]", "values": [{"measurement": "rise in serum ALT", "setting": "HS-rats; [2]", "result": "no significant effect"}, {"measurement": "rise in serum AST", "setting": "HS-rats; [2]", "result": "no significant effect"}, {"measurement": "rise in serum creatinine", "setting": "HS-rats; [2]", "result": "no significant effect"}, {"measurement": "rise in serum creatinine kinase", "setting": "HS-rats; [2]", "result": "no significant effect"}, {"measurement": "rise in serum urea", "setting": "HS-rats; [2]", "result": "no significant effect"}, {"measurement": "rise in serum urea", "setting": "HS-rats; 3 mg/kg i.v. on resuscitation, 4 h after onset of resuscitation, P<0.05 vs HS-rats", "result": "significantly attenuated"}, {"measurement": "rise in serum creatinine", "setting": "HS-rats; 3 mg/kg i.v. on resuscitation, P<0.005 vs HS-rats", "result": "significantly attenuated"}, {"measurement": "rise in serum creatinine", "setting": "HS-rats; 10 mg/kg i.v. on resuscitation, P<0.005", "result": "significantly attenuated"}, {"measurement": "decline in MAP caused by haemorrhage during the resuscitation phase", "setting": "HS-rats; 1, 3 or 10 mg/kg i.v. on resuscitation, P>0.05", "result": "failed to attenuate"}, {"measurement": "rise in serum ALT", "setting": "HS-rats; both 3 and 10 mg/kg i.v. on resuscitation, P<0.005", "result": "significantly attenuated"}, {"measurement": "rise in serum AST", "setting": "HS-rats; [3]", "result": "significantly attenuated"}, {"measurement": "rise in serum creatinine kinase", "setting": "HS-rats; [3]", "result": "significantly attenuated"}, {"measurement": "Infarct size reduction", "setting": "[1]; 1 mg/kg i.v. upon reperfusion", "result": 12, "unit": "%"}, {"measurement": "infarct size (percentage of the AAR)", "setting": "[1]; 1 mg/kg i.v. upon reperfusion", "result": "48.0±3.5", "unit": "%"}, {"measurement": "Infarct size reduction", "setting": "[1]; 3 mg/kg i.v. upon reperfusion", "result": 13, "unit": "%"}, {"measurement": "infarct size (percentage of the AAR)", "setting": "[1]; 3 mg/kg i.v. upon reperfusion", "result": "46.9±2.3", "unit": "%"}, {"measurement": "infarct size (percentage of the AAR)", "setting": "[1]; 10 mg/kg i.v. bolus upon reperfusion, 25 min ischaemia, 2 h reperfusion", "result": "42.8±1.7", "unit": "%"}, {"measurement": "Infarct size reduction", "setting": "[1]; 10 mg/kg i.v. upon reperfusion", "result": 28, "unit": "%"}, {"measurement": "fall in mean arterial blood pressure caused by myocardial ischaemia and reperfusion", "setting": "[1]; [4]", "result": "did not attenuate"}, {"measurement": "heart rate", "setting": "[1]; [4]", "result": "did not have a significant effect"}]}]}
